{"source": "patent EP2415863A1", "about": "“Mutant glucose oxidase” (B.R.A.I.N., priority 2010, dated 2012)", "format_in_all_cases": "biochemical", "key": {"[1]": {"molecular_target": "T1, Aspergillus niger glucose oxidase (GOx) variant M12, N2Y, K13E, T30V, I94V, K152R, SEQ ID NO: 1 (Aspergillus niger, UniProt P13006, I116V/K174R/K35E/N24Y/T52V)", "T1 construct": "made in house; host or cells: Saccharomyces cerevisiae (pYES2)", "T1 sequence (P13006 23-605 N24Y/K35E/T52V/I116V/K174R limits assumed)": "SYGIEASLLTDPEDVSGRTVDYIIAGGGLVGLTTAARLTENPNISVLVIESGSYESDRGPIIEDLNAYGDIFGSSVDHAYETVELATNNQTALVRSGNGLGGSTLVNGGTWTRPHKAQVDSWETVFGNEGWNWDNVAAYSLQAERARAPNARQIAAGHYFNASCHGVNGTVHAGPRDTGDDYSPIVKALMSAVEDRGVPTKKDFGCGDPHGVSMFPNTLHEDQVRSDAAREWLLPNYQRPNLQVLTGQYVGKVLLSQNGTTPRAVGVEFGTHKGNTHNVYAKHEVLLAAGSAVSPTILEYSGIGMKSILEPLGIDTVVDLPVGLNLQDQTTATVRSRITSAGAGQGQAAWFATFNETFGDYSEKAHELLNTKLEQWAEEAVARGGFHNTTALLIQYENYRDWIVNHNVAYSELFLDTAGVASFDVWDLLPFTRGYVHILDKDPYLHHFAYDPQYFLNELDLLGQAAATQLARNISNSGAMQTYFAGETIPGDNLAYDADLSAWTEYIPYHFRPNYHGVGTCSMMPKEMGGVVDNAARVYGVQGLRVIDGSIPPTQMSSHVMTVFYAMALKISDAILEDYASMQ", "assay": "Kinetic constants by ABTS assay, GOx mutant M12", "conditions": "as restated in the description text", "excerpt": "(§1) For detection of GOx activity the ABTS assay was used. 2,2'-azino-bis(3-ethylbenzthiazoline-6-sulphonic acid (ABTS) is commonly used as a substrate with hydrogen peroxide for a peroxidase generating enzyme. Its use allows the reaction kinetics of peroxidases to be followed, to indirectly follow the reaction kinetics of a hydrogen peroxide-producing enzyme or to quantify the amount of hydrogen peroxide in a sample [vanGijlswijk, R.P.M., et al., Fluorochrome-labeled tyramides: Use in immunocytochemistry and fluorescence in situ hybridization. Journal of Histochemistry & Cytochemistry, 1997. 45(3): p. 375-382].\n(§2) The kinetic constants were determined using the Specord 200 from (Analytik Jena, Germany) and the ABTS assay [Zhu, Z.W., et al. 2006, Making glucose oxidase fit for biofuel cell applications by directed protein evolution. Biosensors & Bioelectronics, 21(11): 2046-2051]. The measurements were performed in 1 ml of reaction volume and 1 cm light pathway cuvettes, using 2.5, 5, 10, 25, 50 and 100 mM glucose. The data were fitted using Origin 6 (OriginLab Corporation, Northampton)."}, "[2]": {"molecular_target": "T2, Aspergillus niger glucose oxidase (GOx) parent mutant B11, T30V, I94V, SEQ ID NO: 5 (Aspergillus niger, UniProt P13006, I116V/T52V)", "T2 construct": "made in house; host or cells: Saccharomyces cerevisiae (pYES2 plasmid B11 GOx)", "T2 sequence (P13006 23-605 T52V/I116V limits assumed)": "as the sequence (P13006 23-605 N24Y/K35E/T52V/I116V/K174R limits assumed) above, with Y2N, E13K, R152K counted along it", "assay": "Kinetic constants by ABTS assay, parent GOx B11", "conditions": "as restated in the description text", "excerpt": "as §1, §2"}, "[3]": {"molecular_target": "T3, Aspergillus niger glucose oxidase (GOx), wild type, SEQ ID NO: 3 (Aspergillus niger, UniProt P13006)", "T3 construct": "made in house; host or cells: Saccharomyces cerevisiae (pYES2 vector)", "T3 sequence (P13006 23-605 limits assumed)": "as the sequence (P13006 23-605 N24Y/K35E/T52V/I116V/K174R limits assumed) above, with Y2N, E13K, V30T, V94I, R152K counted along it", "assay": "Kinetic constants by ABTS assay, wt GOx", "conditions": "2.5-100 mM glucose", "excerpt": "as §1, §2"}}}
{"smiles": "OC[C@H]1OC(O)[C@H](O)[C@@H](O)[C@@H]1O", "note": "(stereo partly drawn) [glucose]", "values": [{"measurement": "kcat", "setting": "[1]", "result": 150, "unit": "s⁻¹"}, {"measurement": "kcat", "setting": "[2]", "result": 80, "unit": "s'"}, {"measurement": "kcat", "setting": "[3]", "result": 54.8, "unit": "s'"}]}
